Drawing on PubChem BioAssay (NCI), this text covers GI50 and TGI for eleven molecules.

Among the test systems are M14 melanoma; OVCAR-4 ovarian; HCC-2998 colon; RPMI-8226 leukemia; HL-60(TB) leukemia; CCRF-CEM leukemia; UACC-62 melanoma; SN12C renal; U251 CNS; COLO 205 colon.
Holding throughout (assay): NCI tumour cell line growth inhibition, 48 h

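Where inhibition never reached the appropriate level, the endpoint shown equals the highest concentration tested. Otherwise, values were interpolated linearly from a five-concentration, 48-hour dose response in 96-well plates. The concentration for 50% growth inhibition is given as GI50. TGI: concentration producing complete growth inhibition.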

As for `CCSc1sc(-c2ccc(C)cc2)nc1[P+](c1ccccc1)(c1ccccc1)c1ccccc1`, the GI50 was 0.342 µM with M14 melanoma; 0.275 µM in the assay with OVCAR-4 ovarian; 0.47 µM with HCC-2998 colon; 0.13 µM in the assay on RPMI-8226 leukemia; 0.206 µM with HL-60(TB) leukemia; 0.377 µM in the assay with CCRF-CEM leukemia. In addition, the values for the GI50 in the assay with UACC-62 melanoma and in the assay with SN12C renal were 0.292 µM and 0.294 µM, respectively. For the same molecule, the TGI in the assay on M14 melanoma is 1.51 µM; in the assay with OVCAR-4 ovarian, 1.05 µM; in the assay with HCC-2998 colon, 1.62 µM; with RPMI-8226 leukemia it was 0.477 µM; in the assay with HL-60(TB) leukemia, 0.542 µM; in the assay with CCRF-CEM leukemia it was 2.14 µM. Also, the TGI in the assay on UACC-62 melanoma amounted to 1.24 µM; in the assay on SN12C renal, 1.11 µM.
Regarding `Cc1c(Br)cccc1NC(=O)c1sc2nc3c(cc2c1N)CN(Cc1ccccc1)CC3`, the GI50 was 0.107 µM in the assay with M14 melanoma; 0.523 µM with OVCAR-4 ovarian; 1.6 µM with HCC-2998 colon; 0.242 µM with U251 CNS; 0.161 µM in the assay with HL-60(TB) leukemia; 0.182 µM in the assay on CCRF-CEM leukemia. The figures for the GI50 in the assay on UACC-62 melanoma and with SN12C renal were 0.372 µM and 0.384 µM, respectively. The TGI with M14 melanoma was 0.386 µM; in the assay with OVCAR-4 ovarian it was 8.89 µM; in the assay on HCC-2998 colon, more than 50 µM; in the assay on U251 CNS, 5.58 µM; with HL-60(TB) leukemia, 0.456 µM; in the assay with CCRF-CEM leukemia, more than 50 µM. Also, the TGI in the assay with UACC-62 melanoma and in the assay on SN12C renal was more than 50 µM in each case.
As for `O=C(N/C(=C\c1cc(Cl)ccc1Cl)c1nc2ccccc2[nH]1)c1ccccc1`, the TGI with M14 melanoma was 69.7 µM; in the assay on OVCAR-4 ovarian, more than 100 µM; in the assay with HCC-2998 colon it was 37.8 µM; in the assay on U251 CNS it was more than 100 µM; in the assay with HL-60(TB) leukemia, 67 µM; in the assay on CCRF-CEM leukemia, 88.3 µM. The TGI in the assay with UACC-62 melanoma and in the assay with SN12C renal was more than 100 µM in each case.
Turning to `COc1cc2c3c(c1OC)C1(C=CC(=O)C=C1)CC3N(C(=O)OC(C)(C)C(Cl)(Cl)Cl)CC2` (centres undefined), the TGI was determined as 28.8 µM in the assay on M14 melanoma; 40.3 µM in the assay on OVCAR-4 ovarian; 9.04 µM in the assay on RPMI-8226 leukemia; 22.4 µM in the assay with U251 CNS; 8.26 µM with HL-60(TB) leukemia; 87.7 µM with CCRF-CEM leukemia. In addition, the TGI in the assay with UACC-62 melanoma was determined as 28.4 µM; in the assay with COLO 205 colon, 29 µM; with SN12C renal it was 26.6 µM.
As for `CC(=O)NC1=NC(=O)/C(=C/c2ccc(Cl)cc2Cl)N1C`, the TGI in the assay on M14 melanoma is more than 100 µM; in the assay on OVCAR-4 ovarian it was more than 100 µM; in the assay with HCC-2998 colon, more than 100 µM; in the assay with U251 CNS, more than 100 µM; in the assay on HL-60(TB) leukemia, 7.37 µM; in the assay with CCRF-CEM leukemia, 34.8 µM. The TGI in the assay with UACC-62 melanoma is 88.2 µM; in the assay on COLO 205 colon it was more than 100 µM.
Take `NC(N)=Nc1nc2cc(N)ccc2o1`: the TGI in the assay on M14 melanoma, with OVCAR-4 ovarian, in the assay with HCC-2998 colon, in the assay on U251 CNS, in the assay with HL-60(TB) leukemia and in the assay on CCRF-CEM leukemia was more than 100 µM in each case. For the same molecule, the TGI in the assay on UACC-62 melanoma and in the assay with SN12C renal was more than 100 µM throughout.
For the molecule `O=C(O)CSc1ccn(Cc2ccccc2)c1`, the TGI with M14 melanoma, with OVCAR-4 ovarian, in the assay on RPMI-8226 leukemia, with U251 CNS, in the assay with HL-60(TB) leukemia and with CCRF-CEM leukemia was more than 100 µM in each case. Further, the TGI in the assay with UACC-62 melanoma, in the assay on COLO 205 colon and in the assay with SN12C renal was more than 100 µM in each case.
For `Cc1ccc(NC(=O)C(=O)C2C(=O)C3=C(CC2(C)C)NC2C=CC=CC2S3)c(C)c1` (centres undefined), the TGI with OVCAR-4 ovarian, in the assay on HCC-2998 colon, in the assay on U251 CNS, with HL-60(TB) leukemia, in the assay on CCRF-CEM leukemia and in the assay on UACC-62 melanoma was more than 100 µM throughout. For the same molecule, the TGI in the assay on COLO 205 colon and with SN12C renal was more than 100 µM throughout.
Take `COc1ccc2c(c1)Cc1cc(N=[N+]([O-])c3ccc4c(c3)Cc3cc(OC)ccc3-4)ccc1-2`: the TGI is more than 100 µM with M14 melanoma; more than 100 µM in the assay with OVCAR-4 ovarian; 27.3 µM in the assay with HCC-2998 colon; 30.8 µM in the assay with U251 CNS; more than 100 µM in the assay with HL-60(TB) leukemia; more than 100 µM in the assay on CCRF-CEM leukemia. Besides, the TGI is 85.4 µM with UACC-62 melanoma, 28.6 µM with COLO 205 colon and more than 100 µM with SN12C renal.
For `O=C(Nc1ccc(Cl)cc1Cl)c1c/c(=N\O)c2ccc(O)cc2o1`, the TGI in the assay with M14 melanoma, in the assay with OVCAR-4 ovarian, in the assay with RPMI-8226 leukemia, in the assay with U251 CNS, in the assay on HL-60(TB) leukemia and with CCRF-CEM leukemia was more than 100 µM in each case. The TGI with UACC-62 melanoma, in the assay on COLO 205 colon and in the assay with SN12C renal was more than 100 µM each time.
Consider `CCC(C)CNC1=C(NC(C)=O)C(=O)c2ccccc2C1=O` (centres undefined), for which the TGI in the assay with M14 melanoma, with OVCAR-4 ovarian, in the assay on HCC-2998 colon, with U251 CNS, in the assay on HL-60(TB) leukemia and in the assay with CCRF-CEM leukemia was more than 100 µM in each case. Also, the TGI with UACC-62 melanoma, with COLO 205 colon and in the assay on SN12C renal was more than 100 µM throughout.
